The target in one assay is T1, MAT2A homodimer (Homo sapiens, UniProt P31153).
T1 construct: inferred from Ni sepharose purification and imidazole elution; made in house; host or cells: Sf9 insect cells, recombinant baculovirus (Bac to Bac, pFASTBAC1)
The experiment in a line: Biochemical assay: inhibition of MAT2A (phosphate release, PiColorLock Gold). Conditions: MAT2A IC50 score; read-out: Enzyme Inhibition (Example 275). In a few lines:
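Baculovirus/Sf9-expressed, Ni-purified MAT2A at 4 µg/mL was preincubated with compound for 60 min at 25 °C in 50 mM Tris pH 8.0, 50 mM KCl, 15 mM MgCl2, 0.3 mM EDTA, 0.005% BSA. Substrate mix (500 μM ATP, 400 μM L-methionine) was added and the reaction ran 60 min at 25 °C. Phosphate released stoichiometrically with SAM was measured colorimetrically against a phosphate standard curve.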

Assay [1] deals with SAM in HCT116 human colon carcinoma cell line engineered to delete the MTAP gene (MTAP −/−). The experiment in a line: Cellular assay of target engagement (SAM) by LC-MS/MS. In kind it is cell-based. Conditions: Homo sapiens, HCT-116, 72 h, IC50 score, read-out: Cell 72 h SAM Inhibition (MTAP −/−; Example 276). The essentials:
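MTAP-deleted HCT116 cells were dosed 24 h after plating with a 10-point 3-fold compound series in DMSO, then incubated 72 h at 37 °C/5% CO2. Cells were extracted in cold 80% methanol with acetic acid and d3-SAM internal standard. SAM was quantified by LC-MS/MS MRM (m/z 399.2→250.1).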

The next assay relates to HCT116 MTAP−/−. The experiment in a line: Inhibition of cellular proliferation (Cell Titer Glo), HCT116 MTAP−/−. In kind it is cell-based, human. Conditions: Homo sapiens, HCT-116, 96 h, 4 days, IC50 score, read-out: 4 Day Relative Growth Inhibition (MTAP −/−; Example 277). In a few lines:
(§1)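 Isogenic HCT116 lines, MTAP+/+ and MTAP−/−, treated 24 h after plating with 10-point 3-fold compound dilutions including DMSO only, then grown 4 days at 37 °C/5% CO2. Cell Titer Glo ATP luminescence, blank-subtracted and normalised to 0.2% DMSO control, gave percent change in proliferation versus log concentration.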

The subject of the next assay is HCT116 MTAP+/+. The experiment in a line: Inhibition of cellular proliferation (Cell Titer Glo), HCT116 MTAP+/+. In kind it is cell-based, human. The settings on record: Homo sapiens, HCT-116, 96 h, 4 days, IC50 score, read-out: 4 Day Relative Growth Inhibition (MTAP +/+; Example 277). The essentials:
as §1
(Cellular ATP, detected with luciferase, serves as a proxy for viable cell number.)

A value given as a limit tells only on which side of the number the result lay.

T1 sequence (P31153 whole entry): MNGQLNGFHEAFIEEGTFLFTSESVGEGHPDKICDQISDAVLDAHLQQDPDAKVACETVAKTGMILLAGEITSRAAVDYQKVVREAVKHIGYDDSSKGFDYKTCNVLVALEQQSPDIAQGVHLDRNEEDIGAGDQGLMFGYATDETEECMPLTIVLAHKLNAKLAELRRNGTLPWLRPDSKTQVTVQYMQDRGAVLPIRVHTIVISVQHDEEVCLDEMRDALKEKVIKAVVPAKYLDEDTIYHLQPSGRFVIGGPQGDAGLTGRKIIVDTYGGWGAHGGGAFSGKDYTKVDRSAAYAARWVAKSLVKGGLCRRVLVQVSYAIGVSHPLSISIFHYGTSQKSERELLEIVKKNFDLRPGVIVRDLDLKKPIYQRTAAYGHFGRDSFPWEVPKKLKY

Take `Cn1cc2cc(-n3cc4ccc(OCC(F)(F)F)nc4c(-c4ccc(OC(F)F)cc4)c3=O)ccc2n1` [Example 256, 8-(4-(difluoromethoxy)phenyl)-6-(2-methyl-2H-indazol-5-yl)-2-(2,2,2-trifluoroethoxy)-1,6-naphthyridin-7(6H)-one]: the IC50 on MAT2A homodimer was below 100 nM; in assay [1], below 100 nM; in the assay with HCT116 MTAP−/−, 100 to 10000 nM; with HCT116 MTAP+/+, 100 to 10000 nM.
Turning to `Cn1cnc2ccc(-n3cc4ccc(OCC(F)(F)F)nc4c(-c4ccc(OC(F)F)cc4)c3=O)cc21` [Example 257, 8-(4-(difluoromethoxy)phenyl)-6-(1-methyl-1H-benzo[d]imidazol-6-yl)-2-(2,2,2-trifluoroethoxy)-1,6-naphthyridin-7(6H)-one], the IC50 was below 100 nM on MAT2A homodimer, below 100 nM in assay [1], below 100 nM in the assay on HCT116 MTAP−/− and 100 to 10000 nM with HCT116 MTAP+/+.
For `COc1ccc(-n2cc3ccc(OCC(F)(F)F)nc3c(-c3ccc(OC(F)F)cc3)c2=O)cc1` [Example 258, 8-(4-(difluoromethoxy)phenyl)-6-(4-methoxyphenyl)-2-(2,2,2-trifluoroethoxy)-1,6-naphthyridin-7(6H)-one], the IC50 at MAT2A homodimer is below 100 nM; in assay [1], below 100 nM; with HCT116 MTAP−/−, 100 to 10000 nM; in the assay on HCT116 MTAP+/+ it was 100 to 10000 nM.
For the molecule `CCSc1ccc2cn(-c3ccc4nn(C)cc4c3)c(=O)c(-c3ccc(Cl)cc3)c2n1` [Example 259, 8-(4-chlorophenyl)-2-(ethylthio)-6-(2-methyl-2H-indazol-5-yl)-1,6-naphthyridin-7(6H)-one], the IC50 on MAT2A homodimer is below 100 nM; in assay [1] it was below 100 nM; in the assay with HCT116 MTAP−/− it was below 100 nM; with HCT116 MTAP+/+, above 10000 nM.
Consider `CCCc1ccc2cn(-c3ccc4ncn(C)c4c3)c(=O)c(-c3ccc(OC(F)F)cc3)c2n1` [Example 260, 8-(4-(difluoromethoxy)phenyl)-6-(1-methyl-1H-benzo[d]imidazol-6-yl)-2-propyl-1,6-naphthyridin-7(6H)-one], for which the IC50 was below 100 nM at MAT2A homodimer, below 100 nM in assay [1], below 100 nM in the assay with HCT116 MTAP−/− and above 10000 nM in the assay on HCT116 MTAP+/+.
`Cn1cc2cc(-n3cc4cnc(OCC(F)(F)F)nc4c(-c4ccc(Cl)cc4)c3=O)ccc2n1` [Example 262, 8-(4-chlorophenyl)-6-(2-methyl-2H-indazol-5-yl)-2-(2,2,2-trifluoroethoxy)pyrido[4,3-d]pyrimidin-7(6H)-one]: the IC50 on MAT2A homodimer is below 100 nM; in assay [1] it was below 100 nM; in the assay on HCT116 MTAP−/− it was 100 to 10000 nM; with HCT116 MTAP+/+, above 10000 nM.
Regarding `O=c1c(-c2ccc(OC(F)F)cc2)c2nc(OCC(F)(F)F)ncc2cn1-c1ccc2ncccc2c1` [Example 264, 8-(4-(difluoromethoxy)phenyl)-6-(quinolin-6-yl)-2-(2,2,2-trifluoroethoxy)pyrido[4,3-d]pyrimidin-7(6H)-one], the IC50 was below 100 nM at MAT2A homodimer, below 100 nM in assay [1], 100 to 10000 nM in the assay with HCT116 MTAP−/− and 100 to 10000 nM in the assay with HCT116 MTAP+/+.
Take `Cn1cc2cc(-n3cc4cnc(OCC(F)(F)F)nc4c(-c4ccc(OC(F)F)cc4)c3=O)ccc2n1` [Example 265, 8-(4-(difluoromethoxy)phenyl)-6-(2-methyl-2H-indazol-5-yl)-2-(2,2,2-trifluoroethoxy)pyrido[4,3-d]pyrimidin-7(6H)-one]: the IC50 is below 100 nM on MAT2A homodimer, below 100 nM in assay [1], below 100 nM with HCT116 MTAP−/− and above 10000 nM with HCT116 MTAP+/+.
Consider `O=c1c(-c2ccc(-c3nc[nH]n3)cc2)c2nc(OCC(F)(F)F)ncc2cn1-c1ccc2ncccc2c1` [Example 268, 8-(4-(H-1,2,4-triazol-3-yl)phenyl)-6-(quinolin-6-yl)-2-(2,2,2-trifluoroethoxy)pyrido[4,3-d]pyrimidin-7(6H)-one], for which the IC50 on MAT2A homodimer is below 100 nM; in assay [1], 100 to 1000 nM; with HCT116 MTAP−/−, 100 to 10000 nM; in the assay on HCT116 MTAP+/+, above 10000 nM.
For `CCOc1ncc2cn(-c3ccc4ncn(C)c4c3)c(=O)c(-c3ccc(Cl)cc3)c2n1` [Example 269, 8-(4-chlorophenyl)-2-ethoxy-6-(1-methyl-1H-benzo[d]imidazol-6-yl)pyrido[4,3-d]pyrimidin-7(6H)-one], in that order: below 100 nM, below 100 nM, 100 to 10000 nM and above 10000 nM.
For `CCOc1ncc2cn(-c3ccc4nn(C)cc4c3)c(=O)c(-c3ccc(Cl)cc3)c2n1` [Example 270, 8-(4-chlorophenyl)-2-ethoxy-6-(2-methyl-2H-indazol-5-yl)pyrido[4,3-d]pyrimidin-7(6H)-one], the IC50 is below 100 nM on MAT2A homodimer, below 100 nM in assay [1], below 100 nM in the assay on HCT116 MTAP−/− and above 10000 nM in the assay on HCT116 MTAP+/+.
Turning to `CCOc1ncc2cn(-c3ccc4nn(C)cc4c3)c(=O)c(-c3ccc(OC(F)F)cc3)c2n1` [Example 272, 8-(4-(difluoromethoxy)phenyl)-2-ethoxy-6-(2-methyl-2H-indazol-5-yl)pyrido[4,3-d]pyrimidin-7(6H)-one], the IC50 on MAT2A homodimer was below 100 nM; in assay [1], below 100 nM; in the assay on HCT116 MTAP−/−, 100 to 10000 nM; with HCT116 MTAP+/+, above 10000 nM.
